Test results reported in ChEMBL document CHEMBL3400095, “β-sheet interfering molecules acting against β-amyloid aggregation and fibrillogenesis” (Bioorg Med Chem, 2015).

Tests used:
[1] = biological target: Amyloid-beta precursor protein (Homo sapiens, UniProt P05067); test: Inhibition of amyloid beta (1 to 40) (unknown origin) aggregation
[2] = species on record: Mus musculus; test: Reduction in amyloid beta plaques in Tg2576 mouse; assay type: functional
[3] = species on record: Mus musculus; test: Reduction in amyloid beta levels in Tg2576 mouse; assay type: functional

Chain of Amyloid-beta precursor protein (P05067 whole entry): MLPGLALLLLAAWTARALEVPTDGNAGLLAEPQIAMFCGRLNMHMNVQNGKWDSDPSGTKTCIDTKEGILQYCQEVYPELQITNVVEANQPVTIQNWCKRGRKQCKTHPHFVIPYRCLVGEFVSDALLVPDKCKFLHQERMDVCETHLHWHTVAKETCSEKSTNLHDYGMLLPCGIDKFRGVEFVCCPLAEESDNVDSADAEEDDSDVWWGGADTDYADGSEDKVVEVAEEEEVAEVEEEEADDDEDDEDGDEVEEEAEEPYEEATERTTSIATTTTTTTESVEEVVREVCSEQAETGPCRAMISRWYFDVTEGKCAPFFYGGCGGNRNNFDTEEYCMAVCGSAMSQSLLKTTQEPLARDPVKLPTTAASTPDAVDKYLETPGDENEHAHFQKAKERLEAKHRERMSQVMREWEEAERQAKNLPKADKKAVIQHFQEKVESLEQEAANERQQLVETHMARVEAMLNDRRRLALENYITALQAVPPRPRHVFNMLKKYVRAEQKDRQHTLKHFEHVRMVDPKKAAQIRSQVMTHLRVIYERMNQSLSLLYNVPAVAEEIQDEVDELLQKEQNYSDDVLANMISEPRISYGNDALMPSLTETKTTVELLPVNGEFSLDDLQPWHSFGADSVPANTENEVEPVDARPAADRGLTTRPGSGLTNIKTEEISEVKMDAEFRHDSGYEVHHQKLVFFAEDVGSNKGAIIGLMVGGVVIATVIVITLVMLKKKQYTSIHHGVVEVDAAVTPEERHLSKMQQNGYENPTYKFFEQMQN

IC50 [1] | SMILES | inhibition (INH) [2] | inhibition (INH) [3]
2750 nM | CNc1ccc(C(=O)NC(CCCCCNC(=O)OCc2ccccc2)C(=O)O)cc1 (centres undefined) | – | –
1950 nM | O=C(Cc1ccccc1)NC(CSSCC(NC(=O)Cc1ccccc1)C(=O)O)C(=O)O (centres undefined) | – | –
– | O=C(O[C@@H]1Cc2c(O)cc(O)cc2O[C@@H]1c1cc(O)c(O)c(O)c1)c1cc(O)c(O)c(O)c1 [EPIGALOCATECHIN GALLATE] | 50% | 50%
